Experimental data published in ChEMBL document CHEMBL1136629, “Amphipathic 3-phenyl-7-propylbenzisoxazoles; human pPaR gamma, delta and alpha agonists” (Bioorg Med Chem Lett, 2003).

Assays:
[1] = biological target: T1, Peroxisome proliferator-activated receptor delta (Homo sapiens, UniProt Q03181)
T1 sequence (Q03181 whole entry): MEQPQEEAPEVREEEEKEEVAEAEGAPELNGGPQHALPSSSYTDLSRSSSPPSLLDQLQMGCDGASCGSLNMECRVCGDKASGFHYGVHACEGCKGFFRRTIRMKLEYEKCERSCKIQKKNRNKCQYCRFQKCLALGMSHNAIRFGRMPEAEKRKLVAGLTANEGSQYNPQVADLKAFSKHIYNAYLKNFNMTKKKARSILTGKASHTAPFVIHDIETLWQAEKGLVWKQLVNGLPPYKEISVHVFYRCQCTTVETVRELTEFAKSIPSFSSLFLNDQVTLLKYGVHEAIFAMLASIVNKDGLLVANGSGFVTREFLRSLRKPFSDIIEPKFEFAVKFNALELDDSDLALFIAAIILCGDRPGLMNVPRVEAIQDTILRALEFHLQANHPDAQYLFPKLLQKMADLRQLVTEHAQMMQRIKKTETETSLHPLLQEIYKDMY
Description: In vitro binding affinity towards human peroxisome proliferator activated receptor delta (PPAR delta)

[2] = biological target: T2, Peroxisome proliferator-activated receptor gamma (Homo sapiens, UniProt P37231); assay: In vitro binding affinity towards human peroxisome proliferator activated receptor gamma (PPAR gamma)
T2 sequence (P37231 whole entry): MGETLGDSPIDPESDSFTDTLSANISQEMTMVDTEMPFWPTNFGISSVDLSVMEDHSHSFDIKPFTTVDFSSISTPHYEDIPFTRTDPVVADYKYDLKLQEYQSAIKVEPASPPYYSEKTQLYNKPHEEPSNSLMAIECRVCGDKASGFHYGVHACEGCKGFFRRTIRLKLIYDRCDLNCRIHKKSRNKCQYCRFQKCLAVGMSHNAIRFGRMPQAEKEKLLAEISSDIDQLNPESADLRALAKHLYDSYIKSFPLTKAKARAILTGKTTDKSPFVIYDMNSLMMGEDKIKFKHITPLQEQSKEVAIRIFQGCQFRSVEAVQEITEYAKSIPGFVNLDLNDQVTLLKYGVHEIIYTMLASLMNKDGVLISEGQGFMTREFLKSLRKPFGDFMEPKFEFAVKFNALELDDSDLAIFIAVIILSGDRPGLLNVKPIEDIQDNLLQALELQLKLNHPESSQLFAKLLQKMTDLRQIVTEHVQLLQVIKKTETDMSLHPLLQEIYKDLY

[3] = biological target: T3, Peroxisome proliferator-activated receptor alpha (Homo sapiens, UniProt Q07869); assay: Agonistic activity was determined in COS1 cells transfected with GAL 4-PPAR alpha receptor; format: functional, cell-based, COS-1
T3 sequence (Q07869 whole entry): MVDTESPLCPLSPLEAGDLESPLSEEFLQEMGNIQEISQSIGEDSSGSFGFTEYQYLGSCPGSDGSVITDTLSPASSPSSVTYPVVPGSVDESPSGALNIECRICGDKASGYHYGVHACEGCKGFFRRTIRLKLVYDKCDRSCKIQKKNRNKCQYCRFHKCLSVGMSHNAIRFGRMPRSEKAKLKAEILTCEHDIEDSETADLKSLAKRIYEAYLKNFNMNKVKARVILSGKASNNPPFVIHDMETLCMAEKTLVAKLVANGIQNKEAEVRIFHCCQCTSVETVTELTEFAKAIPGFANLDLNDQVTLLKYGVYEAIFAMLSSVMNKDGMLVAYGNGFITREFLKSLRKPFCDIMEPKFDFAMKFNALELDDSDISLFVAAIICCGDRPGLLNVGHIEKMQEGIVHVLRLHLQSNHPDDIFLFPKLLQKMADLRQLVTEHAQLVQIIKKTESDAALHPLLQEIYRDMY

[4] = biological target: T3, Peroxisome proliferator-activated receptor alpha; assay: In vitro binding affinity towards human peroxisome proliferator activated receptor alpha (PPAR alpha)
[5] = biological target: T2, Peroxisome proliferator-activated receptor gamma; assay: Agonistic activity was determined in COS1 cells transfected with GAL 4-PPAR gamma receptor; format: functional, cell-based, COS-1
[6] = biological target: T1, Peroxisome proliferator-activated receptor delta; assay: Agonistic activity was determined in COS1 cells transfected with GAL 4-PPAR delta receptor; format: functional, cell-based, COS-1
[7] = biological target: T4, Peroxisome proliferator-activated receptor gamma (Homo sapiens) (UniProt P37231); assay: Agonistic transcriptional activity in COS1 cells expressing GAL 4-PPAR gamma at 3 uM; Maximal percent; format: functional, cell-based; details: COS-1
T4 sequence (whole entry): T2 sequence (P37231 whole entry)

[8] = biological target: T5, Peroxisome proliferator-activated receptor alpha (Homo sapiens) (UniProt Q07869); assay: Agonistic transcriptional activity in COS1 cells expressing GAL 4-PPAR alpha at 3 uM; Maximal percent; format: functional, cell-based; details: COS-1
T5 sequence (whole entry): T3 sequence (Q07869 whole entry)

[9] = Bioavailability of compound was determined; format: ADME, organism-based; details: eutheria, in vivo
[10] = AUC of compound for a 2 mpk po dose of the sodium salt in rats.; format: ADME, organism-based; details: rat, plasma, 2 mg/kg

| SMILES | Ki [1] | Ki [2] | EC50 [3] | Ki [4] | EC50 [5] | EC50 [6] | activation [8] | bioavailability [9] | AUC [10] | Emax (% of standard agonist) [7] |
| --- | --- | --- | --- | --- | --- | --- | --- | --- | --- | --- |
| CCCc1c(OCCOc2ccc(CCC(=O)O)cc2)ccc2c(-c3ccccc3)noc12 | 11 nM | 304 nM |  |  |  |  |  |  |  |  |
| CCCc1c(OCCCOc2ccc(CCC(=O)O)cc2)ccc2c(-c3ccccc3)noc12 | 2 nM | 32 nM |  | 7.3 nM |  |  | 42% |  |  | 99% |
| CCCc1c(OCCOc2ccc(CCCC(=O)O)cc2)ccc2c(-c3ccccc3)noc12 | 156 nM | 616 nM | 33 nM | 305 nM |  |  |  |  |  | 72% |
| CCCc1c(OCCCOc2ccccc2CC(=O)O)ccc2c(-c3ccccc3)noc12 | 62 nM | 498 nM |  | 489 nM |  |  |  |  |  |  |
| CCCc1c(OCCCOc2ccc(CC(=O)O)cc2)ccc2c(-c3ccccc3)noc12 | 5 nM |  | 3 nM | 3 nM | 194 nM | 147 nM |  |  |  |  |
| CCCc1c(OCCCSc2ccc(CC(=O)O)cc2Cl)ccc2c(-c3ccccc3)noc12 | 3.7 nM | 11 nM | 3 nM | 14 nM | 4 nM | 3 nM |  |  |  |  |
| CCCc1c(OCCCCOc2cccc(CCC(=O)O)c2)ccc2c(-c3ccccc3)noc12 | 52 nM | 115 nM |  | 329 nM |  |  |  |  |  |  |
| CCCc1c(OCCCCOc2ccc(CC(=O)O)cc2)ccc2c(-c3ccccc3)noc12 | 93 nM | 30 nM | 8 nM | 7 nM | 60 nM |  |  |  |  |  |
| CCCc1c(OCCCOc2ccc(/C=C/C(=O)O)cc2)ccc2c(-c3ccccc3)noc12 | 18 nM | 152 nM |  | 50 nM | 254 nM | 148 nM | 56% |  |  |  |
| CCCc1c(OCCCOc2ccc(OC(C)C(=O)O)cc2)ccc2c(-c3ccccc3)noc12 (centres undefined) | 4.6 nM | 22 nM | 2 nM | 9.3 nM | 27 nM | 13 nM |  |  |  |  |
| CCCc1c(OCCCCOc2ccc(OC(C)(C)C(=O)O)cc2)ccc2c(-c3ccccc3)noc12 | 23 nM | 2.4 nM |  |  | 2 nM | 172 nM |  |  |  |  |
| CCCc1c(OCCCCOc2ccc(/C=C/C(=O)O)cc2)ccc2c(-c3ccccc3)noc12 | 265 nM | 13 nM | 13 nM | 18 nM | 29 nM | 640 nM |  |  |  |  |
| CCCc1c(OCCCCOc2ccccc2CC(=O)O)ccc2c(-c3ccccc3)noc12 | 47 nM | 348 nM |  | 86 nM |  |  |  |  |  |  |
| CCCc1c(OCCCCOc2ccc(CC(C)(C)C(=O)O)cc2)ccc2c(-c3ccccc3)noc12 | 317 nM | 20 nM | 4 nM | 13 nM | 20 nM | 860 nM |  |  |  |  |
| CCCc1c(OCCCCOc2ccc(CCC(=O)O)cc2)ccc2c(-c3ccccc3)noc12 | 37.5 nM | 8.9 nM | 429 nM | 7.6 nM | 485 nM |  |  |  |  |  |

Further lines, with some results ahead:

| Ki [1] | Ki [2] | EC50 [3] | Ki [4] | EC50 [5] | EC50 [6] | activation [8] | bioavailability [9] | AUC [10] | SMILES | Emax (% of standard agonist) [7] |
| --- | --- | --- | --- | --- | --- | --- | --- | --- | --- | --- |
| 165 nM | 26 nM | 50 nM | 46 nM | 52 nM | 400 nM |  |  |  | CCCc1c(OCCCCOc2cccc(C(C)(C)C(=O)O)c2)ccc2c(-c3ccccc3)noc12 |  |
| 508 nM | 100 nM | 8 nM | 5.2 nM | 193 nM |  |  |  |  | CCCc1c(OCCCCOc2cccc(C(=O)O)c2)ccc2c(-c3ccccc3)noc12 |  |
| 110 nM | 41 nM | 92 nM | 255 nM | 100 nM |  |  |  |  | CCCc1c(OCCCCOc2cccc(OC(C)(C)C(=O)O)c2)ccc2c(-c3ccccc3)noc12 |  |
| 203 nM | 17 nM | 2 nM | 23 nM | 10 nM |  |  |  |  | CCCc1c(OCCCCOc2ccc(C(C)(C)C(=O)O)cc2)ccc2c(-c3ccccc3)noc12 |  |
| 26 nM | 662 nM |  | 76 nM |  |  |  |  |  | CCCc1c(OCCCOc2cccc(CC(=O)O)c2)ccc2c(-c3ccccc3)noc12 |  |
| 3520 nM | 1330 nM |  | > 33300 nM |  |  |  |  |  | CCCc1c(OCCCOc2ccccc2CCC(=O)O)ccc2c(-c3ccccc3)noc12 |  |
| 529 nM | 52 nM | 53 nM | 213 nM | 37 nM |  |  |  |  | CCCc1c(OCCCCOc2ccc(C(C)(C)CC(=O)O)cc2)ccc2c(-c3ccccc3)noc12 |  |
| > 14000 nM | > 5300 nM |  | 920 nM |  |  |  |  |  | CCCc1c(OCCCCOc2ccc(C(=O)O)cc2)ccc2c(-c3ccccc3)noc12 |  |
| 136 nM | 20 nM | 2 nM | 47 nM | 16 nM |  |  |  |  | CCCc1c(OCCCCOc2ccc(OC(C)C(=O)O)cc2)ccc2c(-c3ccccc3)noc12 (centres undefined) |  |
|  |  |  |  |  |  | 3% |  |  | CN(CCOc1ccc(CC2SC(=O)NC2=O)cc1)c1ccccn1 (centres undefined) |  |
| 38 nM | 145 nM | 3 nM | 121 nM | 156 nM | 183 nM |  |  |  | CCCc1c(OCCCOc2ccc(CCCC(=O)O)cc2)ccc2c(-c3ccccc3)noc12 |  |
| 3.7 nM | 34 nM | 4 nM | 8.1 nM | 75 nM | 16 nM |  |  |  | CCCc1c(OCCCOc2ccc(OCC(=O)O)cc2)ccc2c(-c3ccccc3)noc12 |  |
| 21 nM | 448 nM |  | 53 nM |  |  |  |  |  | CCCc1c(OCCCOc2cccc(CCC(=O)O)c2)ccc2c(-c3ccccc3)noc12 |  |
| 47 nM | 52 nM | 248 nM | 133 nM | 87 nM |  |  |  |  | CCCc1c(OCCCCOc2cccc(OCC(=O)O)c2)ccc2c(-c3ccccc3)noc12 |  |
| 0.3 nM | 3.1 nM | 5 nM | 7.2 nM | 6 nM | 20 nM |  | 76% | 4.2 µM·h | CCCc1c(OCCCCOc2cccc(CC(=O)O)c2)ccc2c(-c3ccccc3)noc12 |  |
